Results as given in patent US9273058B2 (BRISTOL-MYERS SQUIBB COMPANY, priority 2013, dated 2016).
Where two headings read alike, the source gives them in different places.

Legend:
[1] = target: CK1ε (Homo sapiens, UniProt P49674); assay: CK1ε kinase assay (Caliper LabChip electrophoretic separation of fluoresceinated peptide substrate and product); type: biochemical; conditions: 200 pM CK1ε, 50 μM ATP, 1.5 μM peptide, 22 hours at room temperature
Outline: (§1)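 Kinase reactions ran 22 h at room temperature, were stopped with EDTA, and phosphorylated product was separated electrophoretically from unphosphorylated fluoresceinated peptide. Compounds were tested at eleven concentrations from 10 mM DMSO stocks. IC50 by non-linear regression.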

[2] = target: CK1δ (Homo sapiens, UniProt P48730); assay: CK1δ kinase assay (Caliper LabChip electrophoretic separation of fluoresceinated peptide substrate and product); type: biochemical; conditions: 200 pM CK1δ, 50 μM ATP, 1.5 μM peptide, 22 hours at room temperature
Outline: as §1

Sequence of CK1δ (P48730 whole entry): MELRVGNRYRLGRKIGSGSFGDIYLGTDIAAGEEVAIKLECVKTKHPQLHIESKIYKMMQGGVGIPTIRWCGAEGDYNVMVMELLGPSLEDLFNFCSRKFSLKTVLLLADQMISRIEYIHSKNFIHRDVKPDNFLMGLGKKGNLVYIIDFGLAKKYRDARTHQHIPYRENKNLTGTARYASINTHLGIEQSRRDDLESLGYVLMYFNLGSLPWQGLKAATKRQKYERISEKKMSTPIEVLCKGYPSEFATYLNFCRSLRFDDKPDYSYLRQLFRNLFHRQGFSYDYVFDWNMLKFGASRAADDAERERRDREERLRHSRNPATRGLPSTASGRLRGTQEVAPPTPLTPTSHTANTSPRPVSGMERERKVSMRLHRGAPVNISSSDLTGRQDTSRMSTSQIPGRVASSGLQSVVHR
Sequence of CK1ε (P49674 whole entry): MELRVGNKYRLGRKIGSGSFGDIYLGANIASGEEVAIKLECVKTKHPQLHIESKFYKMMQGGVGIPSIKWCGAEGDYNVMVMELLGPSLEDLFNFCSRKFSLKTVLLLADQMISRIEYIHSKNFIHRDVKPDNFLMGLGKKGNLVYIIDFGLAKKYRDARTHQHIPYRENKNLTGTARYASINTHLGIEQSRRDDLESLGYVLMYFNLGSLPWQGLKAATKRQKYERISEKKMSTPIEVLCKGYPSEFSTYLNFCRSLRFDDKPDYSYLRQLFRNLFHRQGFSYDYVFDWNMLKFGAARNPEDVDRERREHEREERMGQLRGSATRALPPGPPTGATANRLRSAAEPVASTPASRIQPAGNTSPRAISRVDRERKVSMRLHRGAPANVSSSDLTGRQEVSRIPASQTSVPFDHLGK

SMILES: COc1ccc([C@H]2C[C@@H](NC(=O)N3CCn4nc(-c5ccc(F)c(Cl)c5)c(C(N)=O)c4C3)C2)cc1 [Compound 279, 2-(3-Chloro-4-fluorophenyl)-N^5-((1s,3s)-3-(4-methoxyphenyl)cyclobutyl)-6,7-dihydropyrazolo[1,5-a]pyrazine-3,5(4H)-dicarboxamide]
- IC50 ([1]; read-out: CK1ε IC50 range): 0.01 to 10 nM
- IC50 ([2]; read-out: CK1δ IC50 range): 0.01 to 10 nM

SMILES: CC1(NC(=O)N2Cc3c(C(N)=O)c(-c4ccc(Cl)c(Cl)c4)nn3C(CF)C2)CC(F)(F)C1 (centres unmarked) [Compound A28, 2-(3,4-Dichlorophenyl)-N^5-(3,3-difluoro-1-methylcyclobutyl)-7-(fluoromethyl)-6,7-dihydropyrazolo[1,5-a]pyrazine-3,5(4H)-dicarboxamide]
- IC50 ([1]; read-out: CK1ε IC50 range): 0.01 to 10 nM
- IC50 ([2]; read-out: CK1δ IC50 range): 0.01 to 10 nM

SMILES: NC(=O)c1c(-c2cccc(F)c2)nn2c1CN(C(=O)NC13CCC(C(F)F)(CC1)CC3)CC2 [Compound A94, N^5-(4-(Difluoromethyl)bicyclo[2.2.2]octan-1-yl)-2-(3-fluorophenyl)-6,7-dihydropyrazolo[1,5-a]pyrazine-3,5(4H)-dicarboxamide]
- IC50 ([1]; read-out: CK1ε IC50 range): 0.01 to 10 nM
- IC50 ([2]; read-out: CK1δ IC50 range): 0.01 to 10 nM

SMILES: NC(=O)c1c(-c2ccc(Cl)c(Cl)c2)nn2c1CN(C(=O)NC1(C(F)F)CCC1)CC2 [Compound 237, 2-(3,4-Dichlorophenyl)-N^5-(1-(difluoromethyl)cyclobutyl)-6,7-dihydropyrazolo[1,5-a] pyrazine-3,5(4H)-dicarboxamide]
- IC50 ([1]; read-out: CK1ε IC50 range): 0.01 to 10 nM
- IC50 ([2]; read-out: CK1δ IC50 range): 0.01 to 10 nM

SMILES: CC(C)(C)NC(=O)N1CCn2nc(-c3cccc(C#N)c3)c(C(N)=O)c2C1 [Compound 114, N^5-(tert-Butyl)-2-(3-cyanophenyl)-6,7-dihydropyrazolo[1,5-a] pyrazine-3,5(4H)-dicarboxamide]
- IC50 ([1]; read-out: CK1ε): 43 nM
- IC50 ([1]; read-out: CK1ε IC50 range): 10 to 100 nM
- IC50 ([2]; read-out: CK1δ): 12.5 nM
- IC50 ([2]; read-out: CK1δ IC50 range): 10 to 100 nM

SMILES: C[C@@H]1CN(C(=O)NC2CC(F)(F)C2)Cc2c(C(N)=O)c(-c3ccc(Cl)c(Cl)c3)nn21 [Compound A35, (R)-2-(3,4-Dichlorophenyl)-N^5-(3,3-difluorocyclobutyl)-7-methyl-6,7-dihydropyrazolo[1,5-a]pyrazine-3,5(4H)-dicarboxamide]
- IC50 ([1]; read-out: CK1ε IC50 range): 0.01 to 10 nM
- IC50 ([2]; read-out: CK1δ IC50 range): 0.01 to 10 nM

SMILES: N#CC12C3C4C1C1C2C3C41NC(=O)N1CCn2nc(-c3cccc(Cl)c3)c(C(N)=O)c2C1 (centres unmarked) [Compound A87, N^5-(4-Cyanocuban-1-yl)-2-(3-chlorophenyl)-6,7-dihydropyrazolo[1,5-a]pyrazine-3,5(4H)-dicarboxamide]
- IC50 ([1]; read-out: CK1ε IC50 range): 0.01 to 10 nM
- IC50 ([2]; read-out: CK1δ IC50 range): 0.01 to 10 nM

SMILES: CC1(C)CC(NC(=O)N2CCn3nc(-c4cccc(F)c4)c(C(N)=O)c3C2)CC(C)(C)N1 [Compound 18, 2-(3-Fluorophenyl)-N^5-(2,2,6,6-tetramethylpiperidin-4-yl)-6,7-dihydropyrazolo[1,5-a]pyrazine-3,5(4H)-dicarboxamide]
- IC50 ([1]; read-out: CK1ε IC50 range): 100 to 2000 nM
- IC50 ([2]; read-out: CK1δ IC50 range): 10 to 100 nM

SMILES: CC1CN(C(=O)NC(C)(C)C)Cc2c(C(N)=O)c(-c3cccc(Cl)c3)nn21 (centres unmarked) [A8]
- IC50 ([1]; read-out: CK1ε IC50 range): 0.01 to 10 nM
- IC50 ([2]; read-out: CK1δ IC50 range): 0.01 to 10 nM

SMILES: CC(C)(C)NC(=O)N1CCn2nc(-c3cccc(Cl)c3)c(C(N)=O)c2C1 [Compound 108, N^5-(tert-Butyl)-2-(3-chlorophenyl)-6,7-dihydropyrazolo[1,5-a] pyrazine-3,5(4H)-dicarboxamide]
- IC50 ([1]; read-out: CK1ε): 2.4 nM
- IC50 ([1]; read-out: CK1ε IC50 range): 0.01 to 10 nM
- IC50 ([2]; read-out: CK1δ): 0.9 nM
- IC50 ([2]; read-out: CK1δ IC50 range): 0.01 to 10 nM

SMILES: Cc1ccc(NC(=O)N2CCn3nc(-c4cccc(F)c4)c(C(N)=O)c3C2)nn1 [Compound 83, 2-(3-Fluorophenyl)-N^5-(6-methylpyridazin-3-yl)-6,7-dihydropyrazolo[1,5-a]pyrazine-3,5(4H)-dicarboxamide]
- IC50 ([1]; read-out: CK1ε IC50 range): 10 to 100 nM
- IC50 ([2]; read-out: CK1δ IC50 range): 100 to 2000 nM

SMILES: NC(=O)c1c(-c2cccc(Cl)c2)nn2c1CN(C(=O)NC1CC3(C1)CC3(F)F)CC2 (single isomer, unassigned) [Compound 322, 2-(3-Chlorophenyl)-N^5-(1,1-difluorospiro[2.3]hexan-5-yl)-6,7-dihydropyrazolo[1,5-a]pyrazine-3,5(4H)-dicarboxamide]
- IC50 ([1]; read-out: CK1ε IC50 range): 0.01 to 10 nM
- IC50 ([2]; read-out: CK1δ IC50 range): 0.01 to 10 nM

SMILES: NC(=O)c1c(-c2ccc(F)c(Cl)c2)nn2c1CN(C(=O)NC1CCC(F)(F)CC1)C[C@@H]2C(F)F [Compound A14, (R)-2-(3-Chloro-4-fluorophenyl)-N^5-(4,4-difluorocyclohexyl)-7-(difluoromethyl)-6,7-dihydropyrazolo[1,5-a] pyrazine-3,5(4H)-dicarboxamide]
- IC50 ([1]; read-out: CK1ε IC50 range): 0.01 to 10 nM
- IC50 ([2]; read-out: CK1δ IC50 range): 0.01 to 10 nM

SMILES: CC(C)(C)NC(=O)N1CCn2nc(-c3ccc4cc[nH]c4c3)c(C(N)=O)c2C1 [Compound 143]
- IC50 ([1]; read-out: CK1ε): 33.3 nM
- IC50 ([1]; read-out: CK1ε IC50 range): 10 to 100 nM
- IC50 ([2]; read-out: CK1δ): 4.2 nM
- IC50 ([2]; read-out: CK1δ IC50 range): 0.01 to 10 nM

SMILES: NC(=O)c1c(-c2ccc(F)c(Cl)c2)nn2c1CN(C(=O)N[C@H]1C[C@@H](F)C1)CC2 [Compound 190, 2-(3-Chloro-4-fluorophenyl)-N^5-((1s,3s)-3-fluorocyclobutyl)-6,7-dihydropyrazolo[1,5-a] pyrazine-3,5(4H)-dicarboxamide]
- IC50 ([1]; read-out: CK1ε IC50 range): 0.01 to 10 nM
- IC50 ([2]; read-out: CK1δ IC50 range): 0.01 to 10 nM

SMILES: NC(=O)c1c(-c2cccc(F)c2)nn2c1CN(C(=O)Nc1c(Cl)cccc1C(F)(F)F)CC2 [Compound 65, N^5-(2-Chloro-6-(trifluoromethyl)phenyl)-2-(3-fluorophenyl)-6,7-dihydropyrazolo[1,5-a]pyrazine-3,5(4H)-dicarboxamide]
- IC50 ([1]; read-out: CK1ε IC50 range): 100 to 2000 nM
- IC50 ([2]; read-out: CK1δ IC50 range): 100 to 2000 nM

SMILES: NC(=O)c1c(-c2cccc(Cl)c2)nn2c1CN(C(=O)NCC1CCC(F)(F)CC1)CC2 [Compound 180, 2-(3-Chlorophenyl)-N^5-((4,4-difluorocyclohexyl)methyl)-6,7-dihydropyrazolo[1,5-a]pyrazine-3,5(4H)-dicarboxamide]
- IC50 ([1]; read-out: CK1ε IC50 range): 0.01 to 10 nM
- IC50 ([2]; read-out: CK1δ IC50 range): 0.01 to 10 nM

SMILES: CC1(NC(=O)N2Cc3c(C(N)=O)c(-c4ccc(F)c(Cl)c4)nn3[C@H]3COC[C@H]32)CC(F)(F)C1 [Compound 354, (5aS,8aR)-2-(3-Chloro-4-fluorophenyl)-N^5-(3,3-difluoro-1-methylcyclobutyl)-5a,6,8,8a-tetrahydrofuro[3,4-e]pyrazolo [1,5-a]pyrazine-3,5(4H)-dicarboxamide]
- IC50 ([1]; read-out: CK1ε IC50 range): 0.01 to 10 nM
- IC50 ([2]; read-out: CK1δ IC50 range): 0.01 to 10 nM

SMILES: COCCNC(=O)C(C)(C)NC(=O)N1CCn2nc(-c3ccc(F)c(Cl)c3)c(C(N)=O)c2C1 [Compound 217, 2-(3-Chloro-4-fluorophenyl)-N^5-(1-((2-methoxyethyl)amino)-2-methyl-1-oxopropan-2-yl)-6,7-dihydropyrazolo[1,5-a] pyrazine-3,5(4H)-dicarboxamide]
- IC50 ([1]; read-out: CK1ε IC50 range): 100 to 2000 nM
- IC50 ([2]; read-out: CK1δ IC50 range): 10 to 100 nM

SMILES: N#Cc1ccc(O[C@H]2C[C@H](NC(=O)N3CCn4nc(-c5cccc(Cl)c5)c(C(N)=O)c4C3)C2)cc1 [Compound 267, 2-(3-Chlorophenyl)-N^5-((1r,3r)-3-(4-cyanophenoxy)cyclobutyl)-6,7-dihydropyrazolo[1,5-a] pyrazine-3,5(4H)-dicarboxamide]
- IC50 ([1]; read-out: CK1ε IC50 range): 0.01 to 10 nM
- IC50 ([2]; read-out: CK1δ IC50 range): 0.01 to 10 nM

SMILES: CC1(NC(=O)N2CCn3nc(-c4cc(F)cc(Cl)c4)c(C(N)=O)c3C2)CC(F)(F)C1 [Compound 300, 2-(3-Chloro-5-fluorophenyl)-N^5-(3,3-difluoro-1-methylcyclobutyl)-6,7-dihydropyrazolo[1,5-a]pyrazine-3,5(4H)-dicarboxamide]
- IC50 ([1]; read-out: CK1ε IC50 range): 0.01 to 10 nM
- IC50 ([2]; read-out: CK1δ IC50 range): 0.01 to 10 nM

SMILES: NC(=O)c1c(-c2cccc(F)c2)nn2c1CN(C(=O)Nc1ccc(O)nc1)CC2 [Compound 88, 2-(3-Fluorophenyl)-N^5-(6-hydroxypyridin-3-yl)-6,7-dihydropyrazolo[1,5-a]pyrazine-3,5(4H)-dicarboxamide]
- IC50 ([1]; read-out: CK1ε IC50 range): 10 to 100 nM
- IC50 ([2]; read-out: CK1δ IC50 range): 10 to 100 nM

SMILES: NC(=O)c1c(-c2ccc(F)c(Cl)c2)nn2c1CN(C(=O)NC1(C(F)F)CC(F)(F)C1)CC2 [Compound 304, 2-(3-Chloro-4-fluorophenyl)-N^5-(1-(difluoromethyl)-3,3-difluorocyclobutyl)-6,7-dihydropyrazolo[1,5-a]pyrazine-3,5(4H)-dicarboxamide]
- IC50 ([1]; read-out: CK1ε IC50 range): 0.01 to 10 nM
- IC50 ([2]; read-out: CK1δ IC50 range): 0.01 to 10 nM

SMILES: N#Cc1cccc(NC(=O)N2CCn3nc(-c4cccc(F)c4)c(C(N)=O)c3C2)c1 [Compound 54, N^5-(3-Cyanophenyl)-2-(3-fluorophenyl)-6,7-dihydropyrazolo[1,5-a]pyrazine-3,5(4H)-dicarboxamide]
- IC50 ([1]; read-out: CK1ε IC50 range): 0.01 to 10 nM
- IC50 ([2]; read-out: CK1δ IC50 range): 0.01 to 10 nM

SMILES: CC(C)(C)NC(=O)N1Cc2c(C(N)=O)c(-c3ccc(F)c(Cl)c3)nn2C2(C1)CC(F)(F)C2 [Compound A39, N^5′-(tert-Butyl)-2′-(3-chloro-4-fluorophenyl)-3,3-difluoro-4′H-spiro[cyclobutane-1,7′-pyrazolo[1,5-a]pyrazine]-3′,5′(6′H)-dicarboxamide]
- IC50 ([1]; read-out: CK1ε IC50 range): 0.01 to 10 nM
- IC50 ([2]; read-out: CK1δ IC50 range): 0.01 to 10 nM

SMILES: NC(=O)c1c(-c2ccc(F)c(Cl)c2)nn2c1CN(C(=O)NC1CC(F)(F)C1)CC2C(F)(F)F (single isomer, unassigned) [Compound A126, 2-(3-Chloro-4-fluorophenyl)-N^5-(3,3-difluorocyclobutyl)-7-(trifluoromethyl)-6,7-dihydropyrazolo[1,5-a]pyrazine-3,5(4H)-dicarboxamide]
- IC50 ([1]; read-out: CK1ε IC50 range): 0.01 to 10 nM
- IC50 ([2]; read-out: CK1δ IC50 range): 0.01 to 10 nM

SMILES: CC(C)(C)NC(=O)N1Cc2c(C(N)=O)c(-c3ccc(F)c(Cl)c3)nn2C(CCF)C1 (single isomer, unassigned) [Compound A102, N^5-(tert-Butyl)-2-(3-chloro-4-fluorophenyl)-7-(2-fluoroethyl)-6,7-dihydropyrazolo[1,5-a]pyrazine-3,5(4H)-dicarboxamide]
- IC50 ([1]; read-out: CK1ε IC50 range): 0.01 to 10 nM
- IC50 ([2]; read-out: CK1δ IC50 range): 0.01 to 10 nM

SMILES: CC1(NC(=O)N2CCn3nc(-c4cccc(Cl)c4)c(C(N)=O)c3C2)CC(F)(F)C1 [Compound 299, 2-(3-Chlorophenyl)-N^5-(3,3-difluoro-1-methylcyclobutyl)-6,7-dihydropyrazolo[1,5-a] pyrazine-3,5(4H)-dicarboxamide]
- IC50 ([1]; read-out: CK1ε IC50 range): 0.01 to 10 nM
- IC50 ([2]; read-out: CK1δ IC50 range): 0.01 to 10 nM
